Source: patent publication US11767330B2, “Citrate salt, pharmaceutical compositions, and methods of making and using the same” (Foghorn Therapeutics Inc., priority 2021, dated 2023)
“Also recorded” adds a separate entry of the source. Blank lines part the entries; values can stand above or below the molecule they belong to.

Experiments:
[1] = Solubility / precipitation of IV formulations on pH adjustment; assay type: physicochemical; settings: pH lowered with hydrochloric acid solution
Method: Summary of Experiments. […] The pH of the compounding solution would later be adjusted by sodium hydroxide solution to the target pH. […] Only samples containing 20% SBECD (samples S-1.1 and S-2.1) were fully soluble at the desired pH.
Sample Preparation. To a 20 mL scintillation vial was added 60 mg of the racemate of the free base of the compound of Formula I and a magnetic stir bar. 3 mL of formulation solution (either 0%, 10% or 20% w/w SBECD in H2O) was added. The pH of the mixture was adjusted to approximately pH 3 by the addition of 1N HCl. Upon full dissolution (with magnetic stirring, sonication if necessary), the IV formulation was adjusted to the final pH by the addition of 1N NaOH solution. The IV formulation was filtered through a syringe filter, separated into 3 samples of approximately equal volume, and the samples were transferred to a stability chamber at 2-5° C., 25° C., or 40° C. At the specified time point the sample was removed from the stability chamber, an aliquot of the IV formulation was removed and diluted to 0.5 mg/mL with H2O for HPLC analysis.
As noted above, significant precipitation of compound D1 occurred upon adjusting the IV formulation to the final pH level of 5 or 6 for IV formulations containing <20% SBECD. […] IV formulations were filtered prior to conducting the stability studies.

SYO1 cells [2] = experiment: Cell cycle analysis, Click-iT Plus EdU Flow Cytometry Assay; assay type: cell-based, human; settings: SYO1, 200 nM or 1 μM, 8 or 13 days, compared to DMSO and lenalidomide
Method: (§1) Procedure: SYO1 cells were treated for 8 or 13 days with DMSO, a BRD9 degrader (Compound 1) at 200 nM or 1 μM, or an E3 ligase binder (lenalidomide) at 200 nM. Compounds were refreshed every 5 days. Cell cycle analysis was performed using the Click-iT™ Plus EdU Flow Cytometry Assay (Invitrogen). The apoptosis assay was performed using the Annexin V-FITC Apoptosis Detection Kit (Sigma A9210). Assays were performed according to the manufacturer's protocol.

SYO1 cells [3] = experiment: Apoptosis assay, Annexin V-FITC Apoptosis Detection Kit; assay type: cell-based, human; settings: SYO1, 8 days, compared to DMSO controls
Method: as §1

[4] = system: synovial sarcoma cell lines (SYO1, HS-SY-II, and ASKA); experiment: Growth of synovial sarcoma cell lines, crystal violet day 14 (Example 3); assay type: cell-based; settings: daily treatment
Method: (§2) Procedure: Cells were seeded into 6-well or 12-well plates and were treated daily with a BRD9 degrader (Compound 1), a bromo-domain BRD9 binder (Compound 2), E3 ligase binder (lenalidomide), DMSO, or staurosporin (positive control for cell killing), at indicated concentrations. The number of cells was optimized for each cell line. Growth media was refreshed every 5 days. By day 14, medium was removed, cells were washed with PBS, and stained using 500 μL of 0.005% (w/v) crystal violet solution in 25% (v/v) methanol for at least 1 hour at room temperature. Subsequently plates were scanned on an Odyssey CLx Imaging system.

[5] = system: non-synovial control cancer cell lines (RD, HCT116, and Calu6); experiment: Growth of non-synovial control cancer cell lines, crystal violet day 14 (Example 3); assay type: cell-based; settings: daily treatment
Method: as §2

[6] = system: non-synovial control cancer cell lines (293T, A549, G401); experiment: Growth of non-synovial control cancer cell lines (Example 2); assay type: cell-based
Method: (§3) Cells were treated with DMSO or the BRD9 degrader, Compound 1, at indicated concentrations, and proliferation was monitored from day 7 to day 14 by measuring confluency overtime using an IncuCyte live cell analysis system (FIG. 4). Growth medium and compounds were refreshed every 3-4 days.
(§4) Cells were seeded into 12-well plates and treated with DMSO, 1 μM BRD9 inhibitor, Compound 2 (also known as BI-7273, see Martin et al, J Med Chem. 59(10):4462-4475 (2016); see structure of compound 2 below), or 1 μM BRD9 degrader, Compound 1.
(§5) The number of cells was optimized for each cell line. Growth medium and compounds were refreshed every 3-5 days. SYO1, Yamato, A549, 293T and HS-SY-II cells were fixed and stained at day 11. ASKA cells were fixed and stained at day 23. Staining was done by incubation with crystal violet solution (0.5 g Crystal Violet, 27 ml 37% Formaldehyde, 100 mL 10×PBS, 10 mL Methanol, 863 dH20 to 1 L) for 30 min followed by 3× washes with water and drying the plates for at least 24 h at room temperature. Subsequently plates were scanned on an Odyssey CLx Imaging system (FIG. 5).
(§6) Cells were seeded into 96-well ultra-low cluster plate (Costar, #7007) in 200 μL complete media and treated at day 2 with DMSO, Staurosporin, or BRD9 degrader, Compound 1, at indicated doses (FIG. 2C). Media and compounds were changed every 5 d and cell colonies were imaged at day 14.

[7] = system: synovial sarcoma cell lines (SYO1, Yamato, HS-SY-II, and ASKA); experiment: Growth of synovial sarcoma cell lines, IncuCyte confluency / crystal violet / colony imaging (Example 2); assay type: cell-based; settings: FIGS. 4, 5, 6
Method: as §3, §4, §5, §6

[8] = target: T1, Nanoluciferase-BRD9 fusion protein (Homo sapiens, UniProt Q9H8M2); experiment: SYO1 BRD9 NanoLuc degradation assay; assay type: cell-based; settings: 6 hours incubation; read-out: SYO1 BRD9-NanoLuc degradation IC50
T1 construct: fused on or other part: 3xFLAG tag and Nanoluciferase (NLuc) as reporter handle, fused to BRD9. b953 puts them at the N-terminus
T1 sequence (Q9H8M2 134-240 limits assumed): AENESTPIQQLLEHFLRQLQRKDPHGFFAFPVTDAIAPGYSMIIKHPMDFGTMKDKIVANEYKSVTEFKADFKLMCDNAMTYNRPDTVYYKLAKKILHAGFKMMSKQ
Method: Procedure: A stable SYO-1 cell line expressing 3×FLAG-NLuc-BRD9 was generated. On day 0 cells were seeded in 30 μL media into each well of 384-well cell culture plates. The seeding density was 8000 cells/well. On day 1, cells were treated with 30 nL DMSO or 30 nL of 3-fold serially DMSO-diluted compounds (10 points in duplicates with 1 μM as final top dose). Subsequently plates were incubated for 6 hours in a standard tissue culture incubator and equilibrated at room temperature for 15 minutes. Nanoluciferase activity was measured by adding 15 μL of freshly prepared Nano-Glo Luciferase Assay Reagent (Promega N1130), shaking the plates for 10 minutes and reading the bioluminescence using an EnVision reader.
Results: The Inhibition % was calculated using the following formula: % Inhibition=100×(LumHC−LumSample)/(LumHC−LumLC). DMSO treated cells are employed as High Control (HC) and 1 μM of a known BRD9 degrader standard treated cells are employed as Low Control (LC).

SMILES: COc1cc(-c2cn(C)c(=O)c3cnc(N4CCC4)cc23)cc(OC)c1CN1CCC(CN2CCC3(CC2)CN(c2ccc4c(c2)C(=O)N(C2CCC(=O)NC2=O)C4)C3)CC1 (racemic) [racemate of the free base of the compound of Formula I]
- dissolution at pH 3 [1]: complete dissolution

SMILES: COc1cc(-c2cn(C)c(=O)c3cnccc23)cc(OC)c1CN(C)CC(=O)NCCOCCOCCNc1cccc2c1C(=O)N(C1CCC(=O)NC1=O)C2=O (centres unmarked) [Compound 1]
- cells in the S-phase of the cell cycle (SYO1 cells [2]): reduced numbers of cells in the S-phase of the cell cycle
- early- and late-apoptotic cells (SYO1 cells [3]): increased numbers of early- and late-apoptotic cells
- growth of synovial sarcoma cell lines [4]: inhibition of the growth of the cells; also recorded: most significant growth inhibition in all synovial cell lines
- growth of non-synovial control cancer cell lines [5]: did not result in inhibition of the growth
- growth of non-synovial control cancer cell lines [6]: does not result in inhibition of the growth
- growth of synovial sarcoma cell lines [7]: inhibition of the growth of the cells

- DC50 [8]: 180 pM
SMILES: [2H]C([2H])([2H])Oc1cc(-c2cn(C)c(=O)c3cnc(N4CCC4)cc23)cc(OC([2H])([2H])[2H])c1CN1CCC(CN2CCC3(CC2)CN(c2ccc4c(c2)C(=O)N(C2CCC(=O)NC2=O)C4)C3)CC1 (centres unmarked) [Compound D2]
